Read-outs that look alike come from different tables or passages of the source.
Biological target: human TRPA1 channel (Homo sapiens (Human), UniProt O75762)
Experiment: hTRPA1 CHO Ca2+ FLIPR Tetra assay, block of cinnamaldehyde induced calcium influx
Assay type: cell-based
Details: for IC50: CHO cells expressing TRPA1, Hill coefficient fixed to 1.5
Outline: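 Calcium-dye-loaded TRPA1-expressing CHO cells in HBSS/20 mM HEPES pH 7.4, 0.02% BSA were preincubated with compound for 10 or 90 min at room temperature. Calcium influx evoked by roughly an EC50 concentration of cinnamaldehyde was then read on FLIPR Tetra; IC50 came from curve fits with a fixed Hill coefficient.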

[1] = read-out: hTRPA1 IC50 (10 min), compounds incubated 10 minutes at room temperature before cinnamaldehyde agonist
[2] = read-out: hTRPA1 IC50 (90 min), compounds incubated 90 minutes at room temperature before cinnamaldehyde agonist

Chain of human TRPA1 channel (O75762 whole entry): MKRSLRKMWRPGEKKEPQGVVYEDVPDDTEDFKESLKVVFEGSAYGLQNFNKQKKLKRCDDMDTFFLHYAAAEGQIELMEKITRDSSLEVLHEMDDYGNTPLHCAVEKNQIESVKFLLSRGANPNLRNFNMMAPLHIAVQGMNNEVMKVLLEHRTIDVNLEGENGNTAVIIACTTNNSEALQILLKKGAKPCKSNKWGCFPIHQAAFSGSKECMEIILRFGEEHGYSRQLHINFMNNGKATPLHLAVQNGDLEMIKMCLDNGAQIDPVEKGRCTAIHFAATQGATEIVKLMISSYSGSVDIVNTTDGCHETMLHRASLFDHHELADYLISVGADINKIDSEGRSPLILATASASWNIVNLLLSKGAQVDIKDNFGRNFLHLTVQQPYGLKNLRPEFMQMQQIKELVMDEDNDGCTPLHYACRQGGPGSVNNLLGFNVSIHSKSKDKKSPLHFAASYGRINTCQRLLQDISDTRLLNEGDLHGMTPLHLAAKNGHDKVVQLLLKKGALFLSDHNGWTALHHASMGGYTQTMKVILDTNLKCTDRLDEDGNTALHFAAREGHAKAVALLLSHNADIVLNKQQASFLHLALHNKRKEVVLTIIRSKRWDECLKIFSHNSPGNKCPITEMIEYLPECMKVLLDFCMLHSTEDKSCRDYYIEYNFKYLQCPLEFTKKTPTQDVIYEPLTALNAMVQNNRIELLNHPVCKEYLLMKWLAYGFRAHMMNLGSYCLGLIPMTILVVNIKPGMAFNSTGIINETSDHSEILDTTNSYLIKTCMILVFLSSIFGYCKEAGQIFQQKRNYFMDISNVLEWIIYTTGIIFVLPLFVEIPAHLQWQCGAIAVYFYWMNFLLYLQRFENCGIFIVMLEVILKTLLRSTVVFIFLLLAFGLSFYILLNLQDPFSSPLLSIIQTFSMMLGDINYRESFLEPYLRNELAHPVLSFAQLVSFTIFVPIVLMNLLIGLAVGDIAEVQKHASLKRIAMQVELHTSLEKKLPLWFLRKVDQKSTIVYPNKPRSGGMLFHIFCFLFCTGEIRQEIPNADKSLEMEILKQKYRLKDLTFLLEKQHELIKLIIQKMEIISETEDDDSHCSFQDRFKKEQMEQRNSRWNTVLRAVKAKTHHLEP

Structure (SMILES)	IC50 [1] [nM]	IC50 [2] [nM]	TRPA1 IC50 compared with 3-azabicyclo[3.1.0]hexene linker and cyclobutylene linker analogues (bicyclo[3.1.0]hexene linker compounds versus same-substituent analogues (compounds 16, 191; 26, 1))
Nc1ccc2c(=O)n(Cc3nc([C@H]4[C@@H]5CN(c6cccc(F)c6)C[C@@H]54)no3)cnc2n1 [Example Compound 261, 7-amino-3-[[3-[(1R,5S)-3-(3-fluorophenyl)-3-azabicyclo[3.1.0]hexan-6-yl]-1,2,4-oxadiazol-5-yl]methyl]pyrido[2,3-d]pyrimidin-4-one]	9.73	4.3	
Cn1c(NCCO)nc2ncn(Cc3nc([C@H]4[C@@H]5C=C(c6ccccc6)C[C@@H]54)no3)c(=O)c21 [Example Compound 252, 8-(2-hydroxyethylamino)-7-methyl-1-[[3-[(1S,5S,6R)-3-phenyl-6-bicyclo[3.1.0]hex-2-enyl]-1,2,4-oxadiazol-5-yl]methyl]purin-6-one]	304	68	
Cn1cnc2ncn(Cc3nc([C@H]4[C@@H]5C=C(c6cc(F)cc(F)c6)C[C@@H]54)no3)c(=O)c21 [Example Compound 270, 7-methyl-1-[[3-[(1S,5S,6R)-3-(3,5-difluorophenyl)-6-bicyclo[3.1.0]hex-2-enyl]-1,2,4-oxadiazol-5-yl]methyl]purin-6-one]	13	2.4	
O=c1c2cccnc2ncn1Cc1nc([C@H]2C[C@](O)(c3cccc(Cl)c3)C2)no1	281		
Cn1cc(-c2cccc(N3C[C@@H]4[C@H](C3)[C@H]4c3noc(Cn4ncc5ncccc5c4=O)n3)c2)cn1 [Example Compound 169, 6-((3-((1R,5S,6r)-3-(3-(1-methyl-1H-pyrazol-4-yl)phenyl)-3-azabicyclo[3.1.0]hexan-6-yl)-1,2,4-oxadiazol-5-yl)methyl)pyrido[2,3-d]pyridazin-5(6H)-one]	43	41	
Cn1cnc2ncn(Cc3nc([C@H]4[C@@H]5CN(c6ccc(F)c(F)c6)C[C@@H]54)no3)c(=O)c21 [Example Compound 105, 1-((3-((1R,5S,6r)-3-(3,4-difluorophenyl)-3-azabicyclo[3.1.0]hexan-6-yl)-1,2,4-oxadiazol-5-yl)methyl)-7-methyl-1,7-dihydro-6H-purin-6-one]	21.5	3.9	
Cn1cnc2ncn(Cc3nc([C@H]4[C@@H]5CN(c6ccc(Cl)cc6)C[C@@H]54)no3)c(=O)c21 [Example Compound 25, 7-methyl-1-[[3-[(1R,5S,6 r)-3-(4-chlorophenyl)-3-azabicyclo[3.1.0]hexan-6-yl]-1,2,4-oxadiazol-5-yl]methyl]purin-6-one]	20.4		
Cn1cnc2ncn(Cc3nc([C@H]4[C@@H]5CN(c6cccc(C(F)F)c6)C[C@@H]54)no3)c(=O)c21	64.4		
Cn1cnc2ncn(Cc3nc([C@@H]4[C@H]5C=C(c6ccncc6)C[C@H]54)no3)c(=O)c21 [Example Compound 127, 7-methyl-1-((3-((1R,5R,6S)-3-(pyridin-4-yl)bicyclo[3.1.0]hex-2-en-6-yl)-1,2,4-oxadiazol-5-yl)methyl)-1,7-dihydro-6H-purin-6-one]	129	85	
O=c1c2cccnc2cnn1Cc1nc([C@H]2[C@@H]3CN(c4cc(Cl)ccn4)C[C@@H]32)no1 [Example Compound 167, 6-((3-((1R,5S,6r)-3-(4-chloropyridin-2-yl)-3-azabicyclo[3.1.0]hexan-6-yl)-1,2,4-oxadiazol-5-yl)methyl)pyrido[2,3-d]pyridazin-5(6H)-one]	51.1	46	

Results, then the molecule that gave them:

IC50 [1] [nM]	IC50 [2] [nM]	TRPA1 IC50 compared with 3-azabicyclo[3.1.0]hexene linker and cyclobutylene linker analogues (bicyclo[3.1.0]hexene linker compounds versus same-substituent analogues (compounds 16, 191; 26, 1))	Structure (SMILES)
71.4			Cc1cncc2ncn(Cc3nc([C@H]4[C@@H]5CN(c6ccc(Cl)cc6)C[C@@H]54)no3)c(=O)c12 [Example Compound 36, 5-methyl-3-[[3-[(1R,5S,6r)-3-(4-chlorophenyl)-3-azabicyclo[3.1.0]hexan-6-yl]-1,2,4-oxadiazol-5-yl]methyl]pyrido[3,4-d]pyrimidin-4-one]
261			O=c1c2cccnc2ncn1Cc1nc([C@H]2C[C@](O)(c3ccc(Cl)cc3)C2)no1 [Example Compound 11, 3-((3-((1s,3s)-3-(4-chlorophenyl)-3-hydroxycyclobutyl)-1,2,4-oxadiazol-5-yl)methyl)pyrido[2,3-d]pyrimidin-4(3H)-one]
6.4	1.7	improved TRPA1 IC50 values	Cn1cnc2ncn(Cc3nc([C@H]4[C@@H]5C=C(c6cccc(F)c6)C[C@@H]54)no3)c(=O)c21 [Example Compound 114, 1-((3-((1S,5S,6R)-3-(3-fluorophenyl)bicyclo[3.1.0]hex-2-en-6-yl)-1,2,4-oxadiazol-5-yl)methyl)-7-methyl-1,7-dihydro-6H-purin-6-one]
24.3			Cn1cnc2ncn(Cc3nc([C@H]4C[C@H](Oc5cccc(F)c5)C4)no3)c(=O)c21 [Example Compound 176, 1-((3-((1r,3r)-3-(3-fluorophenoxy)cyclobutyl)-1,2,4-oxadiazol-5-yl)methyl)-7-methyl-1,7-dihydro-6H-purin-6-one]
196	130		O=c1c2cccnc2ncn1Cc1nc([C@H]2[C@@H]3CN(c4cc(F)ccn4)C[C@@H]32)no1 [Example Compound 154, 3-((3-((1R,5S,6r)-3-(4-fluoropyridin-2-yl)-3-azabicyclo[3.1.0]hexan-6-yl)-1,2,4-oxadiazol-5-yl)methyl)pyrido[2,3-d]pyrimidin-4(3H)-one]
290			Cc1ccnc2ncn(Cc3nc([C@H]4[C@@H]5CN(c6ccc(Cl)cc6)C[C@@H]54)no3)c(=O)c12 [Example Compound 29, 5-methyl-3-[[3-[(1R,5S,6r)-3-(4-chlorophenyl)-3-azabicyclo[3.1.0]hexan-6-yl]-1,2,4-oxadiazol-5-yl]methyl]pyrido[2,3-d]pyrimidin-4-one]
48.1	19		Cn1cnc2ncn(Cc3nc([C@H]4[C@@H]5CN(c6ccccc6F)C[C@@H]54)no3)c(=O)c21 [Example Compound 97, 1-((3-((1R,5S,6r)-3-(2-fluorophenyl)-3-azabicyclo[3.1.0]hexan-6-yl)-1,2,4-oxadiazol-5-yl)methyl)-7-methyl-1,7-dihydro-6H-purin-6-one]
81.5			Cc1cncc2ncn(Cc3nc([C@H]4[C@@H]5CN(c6cccc(Cl)c6)C[C@@H]54)no3)c(=O)c12
15.1	5.5		Cc1cnn2ncn(Cc3nc([C@H]4[C@@H]5CN(c6cc(Cl)ccn6)C[C@@H]54)no3)c(=O)c12 [Example Compound 138, 3-((3-((1R,5S,6r)-3-(4-chloropyridin-2-yl)-3-azabicyclo[3.1.0]hexan-6-yl)-1,2,4-oxadiazol-5-yl)methyl)-5-methylpyrazolo[5,1-f][1,2,4]triazin-4(3H)-one]
2.88			O=c1c2cccnc2cnn1Cc1nc([C@H]2[C@@H]3CN(c4cccc(Cl)c4)C[C@@H]32)no1 [Example Compound 214, 6-((3-((1R,5S,6r)-3-(3-chlorophenyl)-3-azabicyclo[3.1.0]hexan-6-yl)-1,2,4-oxadiazol-5-yl)methyl)pyrido[2,3-d]pyridazin-5(6H)-one]

Source: patent US10711004B2 (Genentech, Inc., priority 2018, dated 2020)
